The source made the active and inactive calls. The calls are words filed in the database; no cut-off is given here.
Columns and labels:
[1] = biological target: T1, Bile acid receptor (Homo sapiens) (UniProt Q96RI1); assay: Activation of FXR in human HepG2 cells assessed as increase in BSEP mRNA expression at 3 uM incubated for 8 hrs by quantitative real time PCR analysis; type: cell-based
T1 sequence (whole entry): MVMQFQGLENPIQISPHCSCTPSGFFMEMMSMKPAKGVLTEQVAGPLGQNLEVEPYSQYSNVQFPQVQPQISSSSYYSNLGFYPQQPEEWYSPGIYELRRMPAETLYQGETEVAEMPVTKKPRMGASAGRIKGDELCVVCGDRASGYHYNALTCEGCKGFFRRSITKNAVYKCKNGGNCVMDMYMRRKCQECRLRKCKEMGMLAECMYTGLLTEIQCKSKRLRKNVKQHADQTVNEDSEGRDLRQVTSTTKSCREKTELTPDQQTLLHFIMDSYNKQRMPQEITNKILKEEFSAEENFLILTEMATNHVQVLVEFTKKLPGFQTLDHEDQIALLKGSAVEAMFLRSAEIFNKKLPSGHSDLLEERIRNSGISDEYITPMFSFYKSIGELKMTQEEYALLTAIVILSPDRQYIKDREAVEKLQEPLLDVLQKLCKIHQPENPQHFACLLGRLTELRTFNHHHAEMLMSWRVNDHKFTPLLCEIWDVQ

[2] = biological target: T2, Peroxisome proliferator-activated receptor delta (Homo sapiens) (UniProt Q03181); assay: Activation of human PPAR-delta LBD expressed in HEK293T cells assessed as induction of receptor activation at 1 uM incubated for 12 to 14 hrs by luciferase reporter gene assay relative to L165,041; type: cell-based; conditions: HEK-293T
T2 sequence (whole entry): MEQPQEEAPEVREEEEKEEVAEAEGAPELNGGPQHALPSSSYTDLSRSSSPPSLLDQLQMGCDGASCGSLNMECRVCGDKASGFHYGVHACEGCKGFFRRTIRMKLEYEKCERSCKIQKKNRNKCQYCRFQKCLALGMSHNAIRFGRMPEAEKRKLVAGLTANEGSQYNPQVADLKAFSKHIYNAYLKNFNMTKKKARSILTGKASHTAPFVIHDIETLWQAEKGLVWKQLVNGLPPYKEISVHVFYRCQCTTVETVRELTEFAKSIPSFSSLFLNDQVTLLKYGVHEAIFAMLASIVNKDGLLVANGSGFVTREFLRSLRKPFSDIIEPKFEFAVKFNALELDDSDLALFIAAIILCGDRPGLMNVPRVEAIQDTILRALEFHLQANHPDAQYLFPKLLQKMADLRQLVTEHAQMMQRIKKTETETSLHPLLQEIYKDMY

[3] = biological target: T1, Bile acid receptor (Homo sapiens); assay: Activation of human FXR LBD expressed in HEK293T cells assessed as induction of receptor activation at 10 uM incubated for 12 to 14 hrs by luciferase reporter gene assay; type: cell-based; conditions: HEK-293T
[4] = biological target: T1, Bile acid receptor (Homo sapiens); assay: Activation of human FXR LBD expressed in HEK293T cells assessed as induction of receptor activation at 1 uM incubated for 12 to 14 hrs by luciferase reporter gene assay relative to GW4064; type: cell-based; conditions: HEK-293T
[5] = biological target: T3, Peroxisome proliferator-activated receptor delta (Mus musculus) (UniProt P35396); assay: Activation of PPARD in mouse C2C12 cells assessed as increase LpL mRNA expression at 3 uM incubated for 8 hrs by quantitative real time PCR analysis; type: cell-based
T3 sequence (whole entry): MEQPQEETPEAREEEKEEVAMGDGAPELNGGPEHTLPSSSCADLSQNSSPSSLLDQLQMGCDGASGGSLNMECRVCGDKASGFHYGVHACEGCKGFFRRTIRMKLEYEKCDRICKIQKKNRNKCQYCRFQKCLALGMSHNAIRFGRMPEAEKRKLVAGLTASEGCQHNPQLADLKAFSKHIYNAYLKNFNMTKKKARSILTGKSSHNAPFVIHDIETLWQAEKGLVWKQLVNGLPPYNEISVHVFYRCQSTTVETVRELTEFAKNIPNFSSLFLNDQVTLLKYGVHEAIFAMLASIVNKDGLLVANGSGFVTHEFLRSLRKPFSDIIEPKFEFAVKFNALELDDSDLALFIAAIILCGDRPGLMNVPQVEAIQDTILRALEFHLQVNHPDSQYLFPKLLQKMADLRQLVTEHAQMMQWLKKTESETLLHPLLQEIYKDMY

[6] = Stability in Sprague-Dawley rat liver microsomes assessed as remaining parent compound level at 10 uM presence of NADPH regenerating system by HPLC analysis; type: ADME, Microsome; conditions: read-out: Stability
[7] = biological target: T1, Bile acid receptor (Homo sapiens); assay: Activation of FXR in human HepG2 cells assessed as decrease in CYP7A1 mRNA expression at 3 uM incubated for 8 hrs by quantitative real time PCR analysis; type: cell-based
[8] = biological target: T4, Peroxisome proliferator-activated receptor gamma (Homo sapiens) (UniProt P37231); assay: Activation of human PPAR-gamma LBD expressed in HEK293T cells assessed as induction of receptor activation at 10 uM incubated for 12 to 14 hrs by luciferase reporter gene assay; type: cell-based; conditions: HEK-293T
T4 sequence (whole entry): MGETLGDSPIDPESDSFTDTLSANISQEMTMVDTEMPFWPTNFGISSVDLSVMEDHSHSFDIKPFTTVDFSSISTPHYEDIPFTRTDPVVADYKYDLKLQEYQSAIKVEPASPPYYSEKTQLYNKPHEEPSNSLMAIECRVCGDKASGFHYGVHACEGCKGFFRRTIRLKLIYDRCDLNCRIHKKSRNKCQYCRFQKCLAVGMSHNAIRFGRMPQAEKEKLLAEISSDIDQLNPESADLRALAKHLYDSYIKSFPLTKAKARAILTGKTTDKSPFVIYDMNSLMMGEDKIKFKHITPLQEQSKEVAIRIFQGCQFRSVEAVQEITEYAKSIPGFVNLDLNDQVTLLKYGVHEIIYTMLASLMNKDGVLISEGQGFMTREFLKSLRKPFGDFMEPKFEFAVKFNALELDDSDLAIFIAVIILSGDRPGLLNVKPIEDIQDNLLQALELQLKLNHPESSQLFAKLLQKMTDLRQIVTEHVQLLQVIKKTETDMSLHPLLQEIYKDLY

[9] = biological target: T5, Peroxisome proliferator-activated receptor alpha (Homo sapiens) (UniProt Q07869); assay: Activation of human PPAR-alpha LBD expressed in HEK293T cells assessed as induction of receptor activation at 10 uM incubated for 12 to 14 hrs by luciferase reporter gene assay; type: cell-based; conditions: HEK-293T
T5 sequence (whole entry): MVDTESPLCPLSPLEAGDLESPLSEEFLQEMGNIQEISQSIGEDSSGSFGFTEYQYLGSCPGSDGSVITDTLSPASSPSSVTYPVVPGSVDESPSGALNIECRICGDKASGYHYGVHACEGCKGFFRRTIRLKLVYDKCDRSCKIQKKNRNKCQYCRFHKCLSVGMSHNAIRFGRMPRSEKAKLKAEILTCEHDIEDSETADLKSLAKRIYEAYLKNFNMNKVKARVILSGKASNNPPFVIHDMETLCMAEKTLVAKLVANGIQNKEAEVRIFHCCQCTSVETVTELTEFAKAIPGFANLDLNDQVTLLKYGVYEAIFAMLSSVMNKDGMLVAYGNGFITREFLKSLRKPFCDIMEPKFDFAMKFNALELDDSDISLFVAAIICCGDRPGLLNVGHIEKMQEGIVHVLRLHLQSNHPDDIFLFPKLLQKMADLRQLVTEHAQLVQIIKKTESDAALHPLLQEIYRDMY

- %max [2]: 17%
- Activity [3]: Active
- %max [4]: 31%
- Activity [5]: Active
- remaining at 10 µM [6]: 48%
- Activity [7]: Active
- Activity [8]: inactive
- Activity [9]: inactive
Structure (SMILES): CC(C)c1onc(-c2c(Cl)cccc2Cl)c1COc1ccc(CNc2ccc(CC(=O)O)cc2)c(Cl)c1
- Activity [1]: Active
